Test results as given in PMC3961306, “Comparison of the Cancer Gene Targeting and Biochemical Selectivities of All Targeted Kinase Inhibitors Approved for Clinical Use” (PLoS ONE, 2014).

Tests used:
Experiment in all cases: Kinase profiling in a biochemical assay panel (mobility shift assays and ELISA), %-inhibition at 1 μM; selectivity entropy
[1] = biological target: panel of more than 300 wild-type and mutant kinases (313 kinase panel) (Homo sapiens, UniProt P10721, T670I)
[2] = biological target: panel of more than 300 wild-type and mutant kinases (313 kinase panel) (Homo sapiens, UniProt P16234)
panel of more than 300 wild-type and mutant kinases (313 kinase panel) (Homo sapiens, UniProt P16234), sequence (P16234 24-1089, change not shown): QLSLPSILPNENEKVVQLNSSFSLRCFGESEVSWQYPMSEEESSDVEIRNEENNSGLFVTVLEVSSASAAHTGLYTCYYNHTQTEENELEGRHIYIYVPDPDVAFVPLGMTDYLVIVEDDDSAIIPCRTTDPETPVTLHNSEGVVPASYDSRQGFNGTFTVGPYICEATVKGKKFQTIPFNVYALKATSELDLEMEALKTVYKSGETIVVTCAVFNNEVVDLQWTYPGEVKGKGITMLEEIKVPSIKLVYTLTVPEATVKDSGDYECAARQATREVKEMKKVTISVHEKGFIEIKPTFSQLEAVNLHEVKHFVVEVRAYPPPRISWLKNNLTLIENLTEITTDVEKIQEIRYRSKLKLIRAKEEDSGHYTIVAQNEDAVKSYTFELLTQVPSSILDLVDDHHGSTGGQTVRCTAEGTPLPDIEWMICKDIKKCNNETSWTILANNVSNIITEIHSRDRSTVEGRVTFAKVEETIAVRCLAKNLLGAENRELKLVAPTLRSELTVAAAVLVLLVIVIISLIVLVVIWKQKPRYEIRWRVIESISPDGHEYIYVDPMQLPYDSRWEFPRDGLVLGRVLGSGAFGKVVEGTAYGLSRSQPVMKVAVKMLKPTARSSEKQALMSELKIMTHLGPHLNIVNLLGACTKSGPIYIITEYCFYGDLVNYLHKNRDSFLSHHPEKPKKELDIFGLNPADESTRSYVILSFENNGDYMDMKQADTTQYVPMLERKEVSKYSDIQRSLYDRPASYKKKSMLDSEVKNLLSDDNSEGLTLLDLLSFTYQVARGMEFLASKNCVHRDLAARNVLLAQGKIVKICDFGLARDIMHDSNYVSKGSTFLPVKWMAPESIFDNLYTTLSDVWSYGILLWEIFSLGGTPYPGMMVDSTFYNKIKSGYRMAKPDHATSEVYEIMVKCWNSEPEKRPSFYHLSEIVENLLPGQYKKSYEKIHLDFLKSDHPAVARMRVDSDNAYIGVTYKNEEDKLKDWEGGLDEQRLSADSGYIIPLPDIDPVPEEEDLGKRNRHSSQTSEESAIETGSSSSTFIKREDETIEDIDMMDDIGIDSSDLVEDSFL

[3] = biological target: panel of more than 300 wild-type and mutant kinases (313 kinase panel) (Homo sapiens, UniProt P17948); settings: kinase FLT1; compound at 1 μM
[4] = biological target: panel of more than 300 wild-type and mutant kinases (313 kinase panel) (Homo sapiens, UniProt P23458); settings: kinase JAK1; compound at 1 μM
[5] = biological target: panel of more than 300 wild-type and mutant kinases (313 kinase panel) (Homo sapiens, UniProt P53779); settings: kinase JNK3; compound at 1 μM
panel of more than 300 wild-type and mutant kinases (313 kinase panel) (Homo sapiens, UniProt P53779), sequence (P53779 whole entry, change not shown): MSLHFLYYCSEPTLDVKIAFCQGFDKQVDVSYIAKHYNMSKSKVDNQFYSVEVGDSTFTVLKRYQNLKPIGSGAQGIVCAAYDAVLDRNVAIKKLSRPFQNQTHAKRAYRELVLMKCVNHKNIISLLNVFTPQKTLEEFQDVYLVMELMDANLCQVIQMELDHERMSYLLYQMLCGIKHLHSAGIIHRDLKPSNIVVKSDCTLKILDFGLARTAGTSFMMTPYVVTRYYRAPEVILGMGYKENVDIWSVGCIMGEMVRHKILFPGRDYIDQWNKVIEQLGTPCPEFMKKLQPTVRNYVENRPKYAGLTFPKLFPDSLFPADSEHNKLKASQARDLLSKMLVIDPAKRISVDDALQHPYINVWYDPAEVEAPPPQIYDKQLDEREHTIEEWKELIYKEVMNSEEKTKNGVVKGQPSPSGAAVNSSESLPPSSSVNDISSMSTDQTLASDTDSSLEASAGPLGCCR

[6] = biological target: panel of more than 300 wild-type and mutant kinases (313 kinase panel) (Homo sapiens, UniProt Q9H0K1); settings: kinase QIK; 1 μM
panel of more than 300 wild-type and mutant kinases (313 kinase panel) (Homo sapiens, UniProt Q9H0K1), sequence (Q9H0K1 whole entry, change not shown): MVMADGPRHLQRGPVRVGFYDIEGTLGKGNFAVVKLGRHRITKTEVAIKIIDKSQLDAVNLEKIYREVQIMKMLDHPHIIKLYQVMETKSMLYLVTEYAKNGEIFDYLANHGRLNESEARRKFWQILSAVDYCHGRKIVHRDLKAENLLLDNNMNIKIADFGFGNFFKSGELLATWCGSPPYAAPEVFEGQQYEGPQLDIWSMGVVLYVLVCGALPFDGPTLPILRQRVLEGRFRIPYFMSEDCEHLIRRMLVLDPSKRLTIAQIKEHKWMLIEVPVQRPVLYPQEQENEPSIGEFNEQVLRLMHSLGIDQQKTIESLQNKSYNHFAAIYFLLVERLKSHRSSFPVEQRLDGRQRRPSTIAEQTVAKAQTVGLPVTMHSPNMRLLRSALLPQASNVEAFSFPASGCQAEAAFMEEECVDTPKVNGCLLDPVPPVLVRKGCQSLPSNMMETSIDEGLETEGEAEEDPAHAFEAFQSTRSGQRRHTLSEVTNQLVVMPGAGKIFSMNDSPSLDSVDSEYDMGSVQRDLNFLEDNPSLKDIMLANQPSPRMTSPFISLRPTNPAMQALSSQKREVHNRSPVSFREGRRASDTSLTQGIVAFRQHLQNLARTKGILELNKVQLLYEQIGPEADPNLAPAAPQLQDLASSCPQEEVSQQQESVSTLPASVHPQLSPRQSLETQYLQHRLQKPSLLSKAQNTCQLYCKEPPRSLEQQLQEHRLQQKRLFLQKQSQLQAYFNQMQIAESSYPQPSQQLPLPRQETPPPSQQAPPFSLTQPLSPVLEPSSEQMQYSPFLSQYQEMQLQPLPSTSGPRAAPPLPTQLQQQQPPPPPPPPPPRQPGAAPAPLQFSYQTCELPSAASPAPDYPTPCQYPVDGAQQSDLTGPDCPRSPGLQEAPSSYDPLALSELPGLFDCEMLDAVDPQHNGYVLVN

[7] = biological target: T1, panel of more than 300 wild-type and mutant kinases (313 kinase panel) (Homo sapiens, UniProt Q9HBY8); settings: kinase SGK2; 1 μM
T1 sequence (Q9HBY8 1-367): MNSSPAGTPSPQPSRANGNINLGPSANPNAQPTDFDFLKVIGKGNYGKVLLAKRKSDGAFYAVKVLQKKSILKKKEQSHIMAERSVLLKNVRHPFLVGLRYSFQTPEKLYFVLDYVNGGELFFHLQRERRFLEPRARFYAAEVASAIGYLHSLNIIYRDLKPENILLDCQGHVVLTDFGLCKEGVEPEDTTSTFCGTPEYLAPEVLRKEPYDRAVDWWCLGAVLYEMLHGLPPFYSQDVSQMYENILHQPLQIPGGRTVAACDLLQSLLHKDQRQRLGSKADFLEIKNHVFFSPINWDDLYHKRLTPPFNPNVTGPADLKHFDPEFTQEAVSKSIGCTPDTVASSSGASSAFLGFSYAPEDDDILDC

[8] = biological target: panel of more than 300 wild-type and mutant kinases (313 kinase panel) (Homo sapiens, UniProt Q9P286)
panel of more than 300 wild-type and mutant kinases (313 kinase panel) (Homo sapiens, UniProt Q9P286), sequence (Q9P286 whole entry, change not shown): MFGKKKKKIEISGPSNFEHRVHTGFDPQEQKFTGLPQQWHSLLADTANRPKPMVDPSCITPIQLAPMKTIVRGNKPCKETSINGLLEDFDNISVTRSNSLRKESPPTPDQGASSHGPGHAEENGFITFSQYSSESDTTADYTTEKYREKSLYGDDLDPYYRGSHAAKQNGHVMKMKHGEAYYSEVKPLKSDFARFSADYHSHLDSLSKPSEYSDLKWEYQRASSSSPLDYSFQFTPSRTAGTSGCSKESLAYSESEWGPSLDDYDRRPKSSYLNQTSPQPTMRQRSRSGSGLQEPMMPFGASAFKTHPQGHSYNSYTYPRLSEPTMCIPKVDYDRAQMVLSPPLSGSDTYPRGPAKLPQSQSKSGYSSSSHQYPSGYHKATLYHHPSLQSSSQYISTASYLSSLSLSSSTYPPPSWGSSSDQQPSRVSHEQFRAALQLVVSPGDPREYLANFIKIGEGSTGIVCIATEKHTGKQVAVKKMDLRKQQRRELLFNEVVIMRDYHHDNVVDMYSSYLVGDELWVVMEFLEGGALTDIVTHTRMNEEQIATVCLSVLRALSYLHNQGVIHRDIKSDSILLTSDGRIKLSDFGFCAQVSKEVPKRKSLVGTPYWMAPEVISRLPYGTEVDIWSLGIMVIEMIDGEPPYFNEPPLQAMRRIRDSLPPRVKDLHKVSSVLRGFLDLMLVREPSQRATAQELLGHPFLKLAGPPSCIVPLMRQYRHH

[9] = biological target: panel of more than 300 wild-type and mutant kinases (313 kinase panel) (Homo sapiens, UniProt P51812)
[10] = biological target: T2, panel of more than 300 wild-type and mutant kinases (313 kinase panel) (Homo sapiens, UniProt Q13976)
T2 sequence (Q13976 1-671): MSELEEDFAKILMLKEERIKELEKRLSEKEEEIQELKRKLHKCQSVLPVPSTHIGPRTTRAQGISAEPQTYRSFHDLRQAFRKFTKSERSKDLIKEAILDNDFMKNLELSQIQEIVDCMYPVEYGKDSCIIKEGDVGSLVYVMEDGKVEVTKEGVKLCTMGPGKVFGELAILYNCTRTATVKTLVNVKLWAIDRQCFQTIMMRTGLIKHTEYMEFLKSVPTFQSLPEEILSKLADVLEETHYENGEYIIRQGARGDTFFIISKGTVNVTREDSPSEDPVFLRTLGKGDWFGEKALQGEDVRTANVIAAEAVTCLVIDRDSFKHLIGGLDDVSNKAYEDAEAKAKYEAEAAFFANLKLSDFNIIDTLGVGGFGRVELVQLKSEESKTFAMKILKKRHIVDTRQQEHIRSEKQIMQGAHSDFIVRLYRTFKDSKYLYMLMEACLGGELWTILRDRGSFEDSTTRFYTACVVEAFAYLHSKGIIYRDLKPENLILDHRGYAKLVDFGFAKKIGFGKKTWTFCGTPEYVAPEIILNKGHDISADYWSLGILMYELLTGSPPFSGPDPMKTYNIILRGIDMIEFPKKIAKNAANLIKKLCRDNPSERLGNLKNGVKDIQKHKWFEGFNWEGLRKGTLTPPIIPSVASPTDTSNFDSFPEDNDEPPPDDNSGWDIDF

[11] = kinase KIT(T670I), compound at 1 μM

panel of more than 300 wild-type and mutant kinases (313 kinase panel) (Homo sapiens, UniProt P10721, T670I), sequence (P10721 26-976 T670I): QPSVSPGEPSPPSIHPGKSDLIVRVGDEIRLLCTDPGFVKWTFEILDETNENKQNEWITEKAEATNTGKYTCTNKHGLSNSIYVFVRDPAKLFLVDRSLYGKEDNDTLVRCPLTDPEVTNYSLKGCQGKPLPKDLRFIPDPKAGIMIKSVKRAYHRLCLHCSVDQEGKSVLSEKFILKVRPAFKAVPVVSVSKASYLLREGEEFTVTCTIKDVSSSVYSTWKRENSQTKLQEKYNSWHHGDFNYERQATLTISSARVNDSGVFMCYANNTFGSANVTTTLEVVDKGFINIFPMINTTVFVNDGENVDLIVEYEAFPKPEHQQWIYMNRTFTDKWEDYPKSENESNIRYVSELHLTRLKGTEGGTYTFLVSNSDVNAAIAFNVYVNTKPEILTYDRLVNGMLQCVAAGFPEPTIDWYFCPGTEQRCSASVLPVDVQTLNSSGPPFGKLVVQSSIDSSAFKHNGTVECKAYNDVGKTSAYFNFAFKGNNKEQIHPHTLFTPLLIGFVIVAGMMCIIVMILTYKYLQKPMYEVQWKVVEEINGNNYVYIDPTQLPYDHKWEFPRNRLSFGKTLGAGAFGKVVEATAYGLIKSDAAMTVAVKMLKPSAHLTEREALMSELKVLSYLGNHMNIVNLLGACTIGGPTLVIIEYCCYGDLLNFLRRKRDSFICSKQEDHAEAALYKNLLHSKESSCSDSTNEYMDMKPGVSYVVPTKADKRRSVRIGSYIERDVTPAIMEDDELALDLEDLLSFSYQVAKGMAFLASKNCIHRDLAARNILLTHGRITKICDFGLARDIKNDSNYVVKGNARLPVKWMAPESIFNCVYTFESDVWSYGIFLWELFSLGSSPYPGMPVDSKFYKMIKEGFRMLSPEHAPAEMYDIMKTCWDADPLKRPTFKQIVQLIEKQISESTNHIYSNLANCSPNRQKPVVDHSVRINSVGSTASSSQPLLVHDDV

SMILES	%-inhibition of KIT(T670I) [1, 11]	%-inhibition of PDGFRα ([2]; kinase PDGFRα, 1 μM)	%-inhibition of FLT1 [3]	%-inhibition of JAK1 [4]	%-inhibition of JNK3 [5]	%-inhibition of QIK [6]	%-inhibition of SGK2 [7]	%-inhibition of PAK5 ([8]; kinase PAK5, 1 μM)	%-inhibition of RSK2 ([9]; kinase RSK2, 1 μM)	%-inhibition of PGK ([10]; kinase PGK, 1 μM)	%-inhibition of RSK2 ([9]; 1 µM)	%-inhibition of KIT(T670I) ([1]; 1 µM)	%-inhibition of PDGFRα ([2]; 1 µM)	%-inhibition of PGK ([10]; 1 µM)	%-inhibition of PAK5 ([8]; 1 µM)
CC(C)(C)c1nc(-c2cccc(NS(=O)(=O)c3c(F)cccc3F)c2F)c(-c2ccnc(N)n2)s1 [dabrafenib]	1.7%	63%	62%	5.7%	5.59%	80%	-7.58%	21%							
CCCS(=O)(=O)Nc1ccc(F)c(C(=O)c2c[nH]c3ncc(-c4ccc(Cl)cc4)cc23)c1F [vemurafenib]	5.29%	87%	25%	46%	2.85%	6%	2.66%	-1.23%	-2.31%	-4.33%					
Cc1nc(Nc2ncc(C(=O)Nc3c(C)cccc3Cl)s2)cc(N2CCN(CCO)CC2)n1 [dasatinib]							6%								
C[C@@H](Oc1cc(-c2cnn(C3CCNCC3)c2)cnc1N)c1c(Cl)ccc(F)c1Cl [crizotinib]	64%	49%	53%	47%	-1.87%	38%	-2.31%	7%	0.217%	-2.6%					
Cc1ccc(C(=O)Nc2ccc(CN3CCN(C)CC3)c(C(F)(F)F)c2)cc1C#Cc1cnc2cccnn12 [ponatinib]		103%	101%	99%		51%	12%	-0.481%	30%	-0.866%					
O=S(=O)(c1cccc2cnccc12)N1CCCNCC1 [fasudil]	0.568%	16%	-0.73%	-1.43%	-4%	3.26%	-0.764%	-6.61%		44%					
COc1cc(Nc2c(C#N)cnc3cc(OCCCN4CCN(C)CC4)c(OC)cc23)c(Cl)cc1Cl [bosutinib]	7%	77%		-2%		100%	-3.37%	17%		-3.22%	41%				
CO[C@H]1C[C@@H]2CC[C@@H](C)[C@@](O)(O2)C(=O)C(=O)N2CCCC[C@H]2C(=O)O[C@H]([C@H](C)C[C@@H]2CC[C@@H](OCCO)[C@H](OC)C2)CC(=O)[C@H](C)/C=C(\C)[C@@H](O)[C@@H](OC)C(=O)[C@H](C)C[C@H](C)/C=C/C=C/C=C/1C [everolimus]	-2.56%	1.15%	-2.63%	-7%	-4.31%	-3%	-2%	-1.87%	-1.35%	-6.44%					
Cc1ccc(Nc2nccc(N(C)c3ccc4c(C)n(C)nc4c3)n2)cc1S(N)(=O)=O [pazopanib]			100%	9%		17%	-3.44%	2%	9%	-3%		68%			
CNC(=O)c1cc(Oc2ccc(NC(=O)Nc3ccc(Cl)c(C(F)(F)F)c3)c(F)c2)ccn1 [regorafenib]	101%	102%	102%	31%	5%	-5.63%	1%	-8%	6.66%	-7%					
CC(=O)Nc1cccc(-n2c(=O)n(C3CC3)c(=O)c3c(Nc4ccc(I)cc4F)n(C)c(=O)c(C)c32)c1 [trametinib]	-3%	4.53%	-2.75%	-1.83%	-2.37%	-4.66%	-7%	-2.62%	-1.76%	-1.31%					
CCN(CC)CCNC(=O)c1c(C)[nH]c(/C=C2\C(=O)Nc3ccc(F)cc32)c1C [sunitinib]			98%					35%							
CO[C@H]1C[C@@H]2CC[C@@H](C)[C@@](O)(O2)C(=O)C(=O)N2CCCC[C@H]2C(=O)O[C@H]([C@H](C)C[C@@H]2CC[C@@H](OC(=O)C(C)(CO)CO)[C@H](OC)C2)CC(=O)[C@H](C)/C=C(\C)[C@@H](O)[C@@H](OC)C(=O)[C@H](C)C[C@H](C)/C=C/C=C/C=C/1C [temsirolimus]	-4.27%	3.45%	-2%	-7%	-1.22%	-3%	-2.66%	-6%	-2.74%	-5.57%					
CS(=O)(=O)CCNCc1ccc(-c2ccc3ncnc(Nc4ccc(OCc5cccc(F)c5)c(Cl)c4)c3c2)o1 [lapatinib]				-3%	11%	-4.72%	1.81%		-1%			0%	40%	-1%	-0.566%
COc1cc2c(Nc3ccc(Br)cc3F)ncnc2cc1OCC1CCN(C)CC1 [vandetanib]		101%		-3.31%	-0.407%	95%	-2%	-3.26%	5.7%	-3.59%					
N#CC[C@H](C1CCCC1)n1cc(-c2ncnc3[nH]ccc23)cn1 [ruxolitinib]	-0.512%	35%	11%		-3%	35%	-1.48%	14%	9%	14%					
